Source: patent US10005817B2, “Peptide pharmaceuticals” (EUMEDERIS PHARMACEUTICALS, INC., priority 2012, dated 2018)
pEC50, pIC50: −log10 of the molar value. Entries after “also recorded” stand apart in the source; their conditions may differ. Where two headings read alike, the source gives them in different places. Non-standard residues stand in square brackets, D forms with d. Residues, ends and D or L forms follow the SMILES beside them. *: point of attachment. GlcA(β-D,1-O-dodecyl) = CCCCCCCCCCCCO[C@@H]1O[C@H](C(=O)*)[C@@H](O)[C@H](O)[C@H]1O; GlcA(β1-O-octyl) = CCCCCCCCO[C@@H]1O[C@H](C(=O)*)[C@@H](O)[C@H](O)[C@H]1O; Phe(2,4,6-Me3) = Cc1cc(C)c(C[C@H](N)C(=O)O)c(C)c1; Dmt = Cc1cc(O)cc(C)c1C[C@H](N)C(=O)O; hArg = N=C(N)NCCCC[C@H](N)C(=O)O; Nle = CCCC[C@H](N)C(=O)O; Ac5c = NC1(C(=O)O)CCCC1; Aib = CC(C)(N)C(=O)O

Experiments:
blood PO4 levels in rats = assay: blood phosphate levels in rats after single s.c. injection; format: in vivo, rat
Source text: Following the method of Frolik, C.

blood Ca levels in rats = details: sc, 320 micrograms per kg (G4), at 5 hrs
Experimental: Each animal in a group was treated with a single sc injection of either vehicle or test agent.
Blood samples were collected via retro-orbital vein at 0.5, 1, 2, 4, and 5 hrs. post-injection and blood samples were stored on ice prior to centrifugation and testing for blood PO4 and Ca levels.

PTH receptor (PTHR1) = target: T1, PTH receptor (PTHR1) (Homo sapiens, UniProt Q03431); assay: PTH1 cellular assay, cAMP, agonist mode (SaOS2 cells, Cerep); format: cell-based
T1 construct: Cerep SA
T1 sequence (Q03431 27-593): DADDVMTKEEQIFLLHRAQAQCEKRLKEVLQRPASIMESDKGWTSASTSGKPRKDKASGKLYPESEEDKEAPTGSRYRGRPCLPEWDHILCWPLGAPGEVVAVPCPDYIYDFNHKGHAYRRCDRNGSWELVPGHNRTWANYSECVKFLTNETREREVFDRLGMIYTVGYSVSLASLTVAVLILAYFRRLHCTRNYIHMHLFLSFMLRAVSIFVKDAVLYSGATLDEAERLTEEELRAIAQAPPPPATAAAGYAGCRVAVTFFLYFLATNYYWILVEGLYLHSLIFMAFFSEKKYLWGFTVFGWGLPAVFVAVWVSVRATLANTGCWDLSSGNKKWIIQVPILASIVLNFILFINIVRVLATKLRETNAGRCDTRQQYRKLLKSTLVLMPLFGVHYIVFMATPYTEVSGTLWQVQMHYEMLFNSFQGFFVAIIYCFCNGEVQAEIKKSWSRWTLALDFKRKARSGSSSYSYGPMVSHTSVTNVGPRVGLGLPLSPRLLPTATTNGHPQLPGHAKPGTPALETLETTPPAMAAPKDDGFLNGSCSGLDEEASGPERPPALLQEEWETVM
Experimental: Compounds were weighed precisely in an amount of approximately 1 mg and assayed in standard cellular assays (cerep SA). The readout is the amount of cAMP generated in the cells treated with the test compounds, in either agonist or antagonist mode.
Compounds were dissolved in water and diluted in assay buffer containing 1% bovine serum albumin.

mu opioid receptor [1] = target: T2, mu opioid receptor (Homo sapiens, UniProt P35372); assay: mu opioid receptor cellular assay (MOP), antagonist mode, cAMP readout (Cerep); format: cell-based
T2 construct: Cerep
Experimental: (§1) Compounds were weighed precisely in an amount of approximately 2 mg and assayed in standard cellular assays by the contract research organization Cerep, Inc. (Pullman, Wash.) as executed at their subsidiary, Cerep SA (Le Bois l'Eveque, France). The readout is the amount of cAMP generated in the cells treated with the test compounds, in either agonist or antagonist mode. The assays used were the mu opioid receptor cellular assay (MOP in agonist and antagonist mode), the delta2 opioid receptor cellular assay (DOP in agonist and antagonist mode) and the kappa opioid receptor cellular assay (KOP in agonist and antagonist mode). The assays used are described in Wang, J. B., et al. (1994) FEBS Lett 338: 217-222, Law, P. Y. and Loh, H. H. (1993) Mol Pharmacol 43: 684-693, and Avidor-Reiss, T., et al. (1995) FEBS Lett 361: 70-74. The stimulant for the cells in the DOR antagonist assay was 3×10E-8M DPDPE, a well-accepted DOR literature standard.

mu opioid receptor [2] = target: T2, mu opioid receptor; assay: mu opioid receptor cellular assay (MOP), agonist mode, cAMP readout (Cerep); format: cell-based
Experimental: as §1

db/db mice = assay: db/db mice, blood glucose after s.c. dosing; format: in vivo, mouse; details: db/db mice, s.c., 250 nmole/kg
Experimental: The 60 female db/db B6BKS (D) Leprdb/J (strain 000697) mice for this study were approximately 8 to 9 weeks old at arrival (Jackson Laboratory, Bar Harbor, Me.). […] One group of 8 female mice served as the vehicle control and received the vehicle, 0.2% BSA in saline, pH 7.4. One additional group of 8 female mice received the positive control article, liraglutide, at a dose level of 50 nmoles/kg. The test articles, vehicle, and positive control article were administered on Day 1, at approximately 0, 7, and 24 hours during the study via subcutaneous injection at a dose volume of 6 mL/kg.
Clinical observations were conducted at receipt, prior to randomization, and daily from Days 1 to 5. Body weights were measured and recorded at receipt, prior to randomization, and daily from Days 1 to 5. Food consumption was measured and recorded daily from Days 1 to 5. Blood samples for glucose analysis were collected pretest (Day −3) and at 0, 1, 2, 4, 8, 10, 24, 48, 72, and 96 hours following the first dose on Day 1. At study termination all animals were euthanized and the carcasses were discarded without further evaluation.

[3] = plasma protease stability, incubation in human plasma at 37 degC, LC-MS; format: in vitro ADME; details: over 8 hrs
[4] = in the body; by s.c. injection; cited from earlier work
[5] = in vivo; cited from earlier work

T2 sequence (P35372 whole entry): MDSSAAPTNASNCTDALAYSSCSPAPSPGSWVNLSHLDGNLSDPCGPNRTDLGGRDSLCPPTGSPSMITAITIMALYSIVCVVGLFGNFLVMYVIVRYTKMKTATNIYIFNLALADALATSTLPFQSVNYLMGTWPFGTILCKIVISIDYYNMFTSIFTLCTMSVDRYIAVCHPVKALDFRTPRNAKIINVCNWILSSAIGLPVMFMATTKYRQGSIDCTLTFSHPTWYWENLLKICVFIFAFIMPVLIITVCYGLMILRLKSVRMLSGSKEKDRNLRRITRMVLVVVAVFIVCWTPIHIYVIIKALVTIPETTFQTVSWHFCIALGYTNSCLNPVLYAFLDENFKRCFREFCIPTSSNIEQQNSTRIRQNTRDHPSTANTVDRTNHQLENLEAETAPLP

## CCCCCCCCCCCCO[C@@H]1O[C@H](C(=O)NCCCC[C@H](NC(=O)C(C)(C)NC(=O)[C@H](CCC(N)=O)NC(=O)[C@@H](NC(=O)[C@H](Cc2c[nH]c3ccccc23)NC(=O)[C@H](CCCNC(=N)N)NC(=O)[C@H](C)NC(=O)[C@H](CCCCNC(=N)N)NC(=O)[C@H](CCC(N)=O)NC(=O)[C@H](Cc2c[nH]cn2)NC(=O)[C@H](CCCC)NC(=O)[C@H](CC(C)C)NC(=O)[C@H](CCC(N)=O)NC(=O)[C@@H](NC(=O)[C@H](CCC(=O)O)NC(=O)C(C)(C)NC(=O)[C@@H](NC(=O)C2(N)CCCC2)C(C)C)[C@@H](C)CC)[C@@H](C)CC)C(=O)NC(C)(C)C(N)=O)[C@@H](O)[C@H](O)[C@H]1O [EU-232, Ac5c1-Val2-Aib3-Glu4-Ile5-Gln6-Leu7-Nle8-His9-Gln10-hArg11-Ala12-Arg13-Trp14-Ile15-Gln16-Aib17-Lys(N-epsilon-1′-dodecylbeta-D-glucuronyl)18-Aib19-NH2] (H-[Ac5c]V[Aib]EIQL[Nle]HQ[hArg]ARWIQ[Aib]K(GlcA(β-D,1-O-dodecyl))[Aib]-NH2)
Blood PO4 levels in rats; sc, last time point in the assay
  time point of maximal statistically significant effect on blood phosphate: 5 h
Blood PO4 levels in rats; single sc injection, 80 mcg groups
  blood PO4 levels: transient but not statistically significant decrease
Blood PO4 levels in rats; single sc injection, 5 hr. time point, dose not named in the sentence (320 group)
  maximal decrease in blood PO4 levels from time 0 hr. level: 25-35%
Blood Ca levels in rats
  blood calcium levels: no elevation
PTH receptor (PTHR1)
  Characterization: super-agonistic response; also recorded: super-agonistic activity; also recorded: agonist
  pEC50: 8.62
PTH receptor (PTHR1); SAOS-2, read-out: Maximal response (% PTHrP)
  Emax: 145%
PTH receptor (PTHR1); SAOS-2, read-out: maximal response
  Emax: 125%

## CCCCCCCCO[C@@H]1O[C@H](C(=O)NCCCC[C@H](NC(=O)[C@H](Cc2c(C)cc(C)cc2C)NC(=O)[C@@H]2CCCN2C(=O)[C@@H](N)Cc2c(C)cc(O)cc2C)C(N)=O)[C@@H](O)[C@H](O)[C@H]1O [EU-A102, 2′,6′-dimethyl-L-tyrosyl-prolyl-2′,4′,6′-trimethyl-L-phenylalanyl-Nε-(1′-octyl β-D-glucuronyl)-L-lysine amide] (H-[Dmt]P[Phe(2,4,6-Me3)]K(GlcA(β1-O-octyl))-NH2)
Mu opioid receptor [1]
  pIC50: 7.00
Mu opioid receptor [2]
  Characterization (MOP): partial agonist
  pEC50: 7.00

## CCCCCCCCCCCCO[C@@H]1O[C@H](C(=O)NCCCC[C@H](NC(=O)[C@H](Cc2c(C)cc(C)cc2C)NC(=O)[C@@H]2CCCN2C(=O)[C@@H](N)Cc2c(C)cc(O)cc2C)C(N)=O)[C@@H](O)[C@H](O)[C@H]1O [EU-A103, Dmt-Pro-Tmp-Lys(C12-glucuronyl)-NH2] (H-[Dmt]P[Phe(2,4,6-Me3)]K(GlcA(β-D,1-O-dodecyl))-NH2)
Mu opioid receptor [1]
  pIC50: 7.07
Mu opioid receptor [2]
  Characterization (MOP): pure antagonist

## CCCCCCCCCCCCO[C@@H]1O[C@H](C(=O)NCCCC[C@H](NC(=O)[C@@H](NC(=O)[C@H](Cc2ccccc2)NC(=O)[C@H](CCC(=O)O)NC(=O)[C@@H]2CCCCNC(=O)CC[C@H](NC(=O)[C@H](CC(=O)O)NC(=O)[C@H](CC(C)C)NC(=O)[C@H](Cc3ccc(O)cc3)NC(=O)[C@H](CCCCN)NC(=O)[C@H](CO)NC(=O)[C@H](Cc3ccc(O)cc3)NC(=O)[C@H](CC(=O)O)NC(=O)[C@H](CO)NC(=O)[C@@H](NC(=O)[C@H](Cc3ccccc3)NC(=O)[C@@H](NC(=O)CNC(=O)[C@H](CCC(N)=O)NC(=O)C(C)(C)NC(=O)[C@@H](N)Cc3c[nH]cn3)[C@@H](C)O)[C@@H](C)O)C(=O)N[C@@H](CCC(N)=O)C(=O)N[C@@H](C)C(=O)N[C@@H](C)C(=O)N2)[C@@H](C)CC)C(=O)N[C@@H](Cc2c[nH]c3ccccc23)C(=O)N[C@@H](CC(C)C)C(=O)N[C@@H](CC(C)C)C(=O)N[C@@H](CCC(N)=O)C(=O)N[C@H](C(N)=O)[C@@H](C)O)[C@@H](O)[C@H](O)[C@H]1O [EU-A993]
db/db mice; 0 hr
  Mean Blood Glucose: 503 mg/dL
db/db mice; 10 hr
  Mean Blood Glucose: 305 mg/dL
db/db mice; 24 hr
  Mean Blood Glucose: 324 mg/dL
db/db mice; 48 hr
  Mean Blood Glucose: 426 mg/dL
[3]
  amount of intact compound versus time in human plasma: essentially no change

## CC[C@H](C)[C@H](NC(=O)[C@H](Cc1ccccc1)NC(=O)[C@H](CCC(=O)O)NC(=O)[C@H](CCCCN)NC(=O)[C@H](C)NC(=O)[C@H](C)NC(=O)[C@H](CCC(N)=O)NC(=O)CNC(=O)[C@H](CCC(=O)O)NC(=O)[C@H](CC(C)C)NC(=O)[C@H](Cc1ccc(O)cc1)NC(=O)[C@H](CO)NC(=O)[C@H](CO)NC(=O)[C@@H](NC(=O)[C@H](CC(=O)O)NC(=O)[C@H](CO)NC(=O)[C@@H](NC(=O)[C@H](Cc1ccccc1)NC(=O)[C@@H](NC(=O)CNC(=O)[C@H](CCC(=O)O)NC(=O)[C@H](C)NC(=O)[C@@H](N)Cc1c[nH]cn1)[C@@H](C)O)[C@@H](C)O)C(C)C)C(=O)N[C@@H](C)C(=O)N[C@@H](Cc1c[nH]c2ccccc12)C(=O)N[C@@H](CC(C)C)C(=O)N[C@H](C(=O)N[C@@H](CCCCN)C(=O)NCC(=O)N[C@@H](CCCNC(=N)N)C(N)=O)C(C)C [GLP-1 (7-36), reference compound]
[3]
  amount of intact compound versus time in human plasma: rapid decrease

## CC[C@H](C)[C@H](NC(=O)[C@H](CCC(=O)O)NC(=O)[C@H](CO)NC(=O)[C@@H](NC(=O)[C@@H](N)CO)C(C)C)C(=O)N[C@@H](CCC(N)=O)C(=O)N[C@@H](CC(C)C)C(=O)N[C@@H](CCSC)C(=O)N[C@@H](Cc1cnc[nH]1)C(=O)N[C@@H](CC(N)=O)C(=O)N[C@@H](CC(C)C)C(=O)NCC(=O)N[C@@H](CCCCN)C(=O)N[C@@H](Cc1cnc[nH]1)C(=O)N[C@@H](CC(C)C)C(=O)N[C@@H](CC(N)=O)C(=O)N[C@@H](CO)C(=O)N[C@@H](CCSC)C(=O)N[C@@H](CCC(=O)O)C(=O)N[C@@H](CCCN=C(N)N)C(=O)N[C@H](C(=O)N[C@@H](CCC(=O)O)C(=O)N[C@@H](Cc1c[nH]c2ccccc12)C(=O)N[C@@H](CC(C)C)C(=O)N[C@@H](CCCN=C(N)N)C(=O)N[C@@H](CCCCN)C(=O)N[C@@H](CCCCN)C(=O)N[C@@H](CC(C)C)C(=O)N[C@@H](CCC(N)=O)C(=O)N[C@@H](CC(=O)O)C(=O)N[C@H](C(=O)N[C@@H](Cc1cnc[nH]1)C(=O)N[C@@H](CC(N)=O)C(=O)N[C@@H](Cc1ccccc1)C(=O)O)C(C)C)C(C)C [PTH]
[4]
  half-life: 30 min

## CC[C@H](C)[C@H](NC(=O)[C@H](CCC(=O)O)NC(=O)[C@H](CO)NC(=O)[C@@H](NC(=O)[C@@H](N)CO)C(C)C)C(=O)N[C@@H](CCC(N)=O)C(=O)N[C@@H](CC(C)C)C(=O)N[C@@H](CCSC)C(=O)N[C@@H](Cc1cnc[nH]1)C(=O)N[C@@H](CC(N)=O)C(=O)N[C@@H](CC(C)C)C(=O)NCC(=O)N[C@@H](CCCCN)C(=O)N[C@@H](Cc1cnc[nH]1)C(=O)N[C@@H](CC(C)C)C(=O)N[C@@H](CC(N)=O)C(=O)N[C@@H](CO)C(=O)N[C@@H](CCSC)C(=O)N[C@@H](CCC(=O)O)C(=O)N[C@@H](CCCN=C(N)N)C(=O)N[C@H](C(=O)N[C@@H](CCC(=O)O)C(=O)N[C@@H](Cc1c[nH]c2ccccc12)C(=O)N[C@@H](CC(C)C)C(=O)N[C@@H](CCCN=C(N)N)C(=O)N[C@@H](CCCCN)C(=O)N[C@@H](CCCCN)C(=O)N[C@@H](CC(C)C)C(=O)N[C@@H](CCC(N)=O)C(=O)N[C@@H](CC(=O)O)C(=O)N[C@H](C(=O)N[C@@H](Cc1cnc[nH]1)C(=O)N[C@@H](CC(N)=O)C(=O)N[C@@H](Cc1ccccc1)C(=O)O)C(C)C)C(C)C [Teriparatide]
[5]
  half life: 19 min
